Laboratory results published in patent EP1171607B1, “STREPTOKINASE FRAGMENTS AND THEIR USE FOR INHIBITING CELL DEATH” (Rabkin, Simon W., priority 1999, dated 2000).
Where no end group is shown, it is not given here.

What was measured:
M07E = M07E starved 30 hours in 1% fetal calf serum; 20 µg/ml peptide
Description: (§1) The hematopoietic, growth factor dependent cell lines, M07E and TF-1 (Mijajima, CDNAX Research Institute, Palo Alto, California), were starved for 30 hours in DMEM containing 1% fetal calf serum (Hyclone, Logan, Utah) in the presence or absence of 20 µg/ml of the 20mer peptide (SEQ. ID NO. 6). Cell viability was measured by one of two methods, trypan blue exclusion or ^3H-thymidine incorporation (Alai et al., J. Biol. Chem. 267:18021-18025, 1992).

TF-1 = TF-1 starved 30 hours in 1% fetal calf serum; 20 µg/ml peptide
Description: as §1

Sequence: SVDVEYTQFTDFRGKLTKLL [Peptide 20mer]
- TRYPAN BLUE COUNTS (% VIABILITY) (M07E): 20 ± 0.5%
- TRYPAN BLUE COUNTS (% VIABILITY) (TF-1): 29 ± 1%
